{"source": "patent US7445892B2", "about": "“Method of testing anticancer agent-sensitivity of tumor cells” (Eisai Co., Ltd., priority 2000, dated 2008)", "tested_on": "HCT116-C9", "experiment": "Gene expression analysis using DNA microarray (GeneChip Hu6800)", "type": "cell-based, human", "method": "All cells were cultured in RPMI-1640 medium supplemented with 10% of fetal bovine serum, 100 units/ml of penicillin and 100 μg/ml of streptomycin at 37° C. under 5% CO2.\nE7070, or ER-35748 or ER-68487 represented by the structural formula shown below was added to the media of an E7070-susceptible strain HCT116-C9 and an E7070-resistant strain HCT116-C9-C1 at a concentration of 8 μM and the cells were cultured. Then, cells were recovered after 0, 3, 6 and 12 hours. Further, the cells were also cultured for 12 hours without adding the drug and recovered.\nTotal RNA was extracted from these cells and subjected to the subsequent analyses. The RNA extracted from the cells cultured for 12 hours with the drug and the RNA from extracted the cells cultured for 12 hours without the drug were used for the gene expression analysis using a DNA microarray described in Example 2. HCT116-C9 was a substrain isolated from HCT116 derived from human colon cancer (American Type Culture Collection, Manassas, Va., U.S.A.), and HCT116-C9-C1 was an E7070-resistant substrain obtained by culturing this HCT116-C9 in the presence of E7070 with gradually increasing the E7070 concentration.\nTotal RNA was extracted from the recovered cells by using TRIZOL Reagent (Life Technologies Oriental) according to the attached operation manual.\nEach RNA obtained in Example 1 was dissolved in 100 μl of sterilized water treated with diethyl pyrocarbonate (DEPC) and further purified by using RNeasy Column (QIAGEN), and double-stranded cDNA was synthesized by using SuperScript Choice System (Life Technologies Oriental) and a T7-d(T)24 primer.\nFirst, to 10 μg of RNA, 5 μM T7-d(T)24 primer, 1×First strand buffer, 10 mM DTT, 500 μM dNTP mix and 20 units/μl of SuperScript II Reverse Transcriptase were added and the mixture was allowed to react at 42° C. for 1 hour to synthesize single-stranded DNA. Subsequently, to the DNA, 1×Second strand buffer, 200 μM dNTP mix, 67 U/ml of DNA ligase, 270 U/ml of DNA polymerase I and 13 U/ml of RNase H were added and the mixture was allowed to react at 16° C. for 2 hours to synthesize double-stranded cDNA. Further, to the cDNA, 67 U/ml of T4 DNA polymerase I was added and the mixture was allowed to react at 16° C. for 5 minutes and then 10 μl of 0.5 M EDTA was added to terminate the reaction.\nThe obtained cDNA was purified with phenol/chloroform, and a labeling reaction with biotinylated UTP and CTP was carried out by using RNA Transcript Labeling Kit (Enzo Diagnostics) according to the attached operation manual. The reaction product was purified with Rneasy Column and heated in 200 mM Tris/acetate buffer (pH 8.1), 150 mM magnesium acetate, 50 mM potassium acetate at 94° C. for 35 minutes to obtain fragment cRNA.\nThe fragmented cRNA was hybridized with GeneChip Hu6800 (Affymetrix) in 100 mM MES, 1 M sodium salt, 20 mM EDTA and 0.01% Tween 20 at 45° C. for 16 hours. After the hybridization, the GeneChip was washed and stained according to the protocol EukGE-WS2 attached to Affymetrix Fluidics Station. For the staining, streptavidin-phycoerythrin and biotinylated goat anti-streptavidin antibody were used. The stained GeneChip was scanned by using HP Argon Ion Laser Confocal Scanner (Hewlett Packard) to measure its fluorescence intensity. The fluorescence was measured at 570 nm by using an excitation light at 488 nm.\nThe quantitative data analyses were all conducted by using GeneChip Software (Affymetrix). To quantify RNA, an average of “differences [(Perfect match hybridization signal)−(Mismatch signal)]” was obtained for each probe family.\nE7070, or ER-35748 or ER-68487 was added to a medium for HCT116-C9 at a concentration of 8 μM and culture was performed. The results of analysis of RNA extracted from the cells at 12 hours by using GeneChip were compared with the results of RNA analysis for HCT116-C9 cells obtained in the same manner except for not adding the drug. […]", "key": {"[1]": {"details": "HCT116-C9, 8 μM, 12 hours, compared with cells without drug, change of 1.8 times or more counted"}}, "data": [{"smiles": "NS(=O)(=O)c1ccc(S(=O)(=O)Nc2cccc3c(Cl)c[nH]c23)cc1", "note": "[E7070, N-(3-chloro-7-indolyl)-1,4-benzenedisulfonamide]", "values": [{"measurement": "enhancement of expression of the genes listed in Table 3", "setting": "HCT116-C9, 8 μM for 12 hours", "value": "≥ 1.8", "unit": "times"}, {"measurement": "inhibition of expression of the genes listed in Table 4", "setting": "HCT116-C9, 8 μM for 12 hours", "value": "≥ 1.8", "unit": "times"}, {"measurement": "expression levels of the genes listed in Table 1", "setting": "[1]", "value": "increased"}, {"measurement": "expression levels of the genes listed in Table 2", "setting": "[1]", "value": "decreased"}]}]}
